“And” between values parts separate entries of the source, which are not always exact repeats. Equal values may be shown once.
What was measured:
[1] = cn = amount concentration of the nth substance listed, in mol/dm3; settings: Drop volume
[2] = for surface tension liquid-gas: Drop volume; for mass density / speed of sound: 101.3 kPa, Liquid; for mass density: Vibrating tube method; for speed of sound: Frequency=3 MHz, Single path-length method

CCCCCCCCCCCCO[C@@H]1O[C@H](CO)[C@@H](O)[C@H](O)[C@H]1O [dodecyl beta.-D-glucopyranoside] + O
surface tension liquid-gas [mN/m], [1]
Settings | 310.15 K | 323.15 K
c1 = 2.33e-05 | 52.97 | 52.98
c1 = 3.58e-05 | 46.13 | 46.38
c1 = 5.16e-05 | 41.28 | 41.5
c1 = 6.49e-05 | 38.47 | 38.5
c1 = 7.97e-05 | 35.61 | –
c1 = 9.31e-05 | 34.42 | 35.04
c1 = 0.000106 | 33.04 | 33.77
c1 = 0.000123 | 31.7 | 32.19
c1 = 0.000131 | 31.19 | 31.35
c1 = 0.000146 | 29.75 | 29.99
c1 = 0.000162 | 30.12 | 29.72
c1 = 0.000169 | 29.25 | 28.68
c1 = 0.000177 | 29.51 | 28.83
c1 = 0.000187 | 29.14 | 28.4
c1 = 0.000198 | 29.09 | 28
c1 = 0.00021 | 29.52 | 28.11
c1 = 0.000216 | 29.36 | 28.07
c1 = 0.000227 | 29.03 | 28.56
c1 = 0.000241 | 29.02 | 28.29
c1 = 0.000258 | 29.1 | 27.87

O [water]
[2]
Settings | mass density [kg/m3] | speed of sound [m/s] | surface tension liquid-gas
283.15 K | 999.707 | – | 73.92 mN/m
285.65 K | 999.444 | 1457.3 | –
290.65 K | 998.689 | 1474.7 | –
295.65 K | 997.658 | 1490 | –
298.15 K | – | – | 71.77 mN/m
300.65 K | 996.376 | 1503.3 | –
305.65 K | 994.867 | 1514.9 | –
310.15 K | – | – | 70.13 mN/m and 69.93 mN/m
310.65 K | 993.147 | 1524.7 | –
313.15 K | – | 1529 | –
315.65 K | 991.235 | 1533 | –
318.15 K | – | 1536.6 | –
320.65 K | 989.14 | 1539.8 | –
323.15 K | 988.029 | – | 68.15 mN/m and 67.79 mN/m

O [water] + CCCCCCCCCCCCO[C@@H]1O[C@H](CO)[C@@H](O)[C@H](O)[C@H]1O
[1], c2 = 0
Settings | surface tension liquid-gas [mN/m]
310.15 K | 69.93
323.15 K | 67.79

— the NIST ThermoML archive (doi:10.1016/j.fluid.2018.08.011)
